What was measured:
[1] = tested on: patients with CAD and LDL-C≧130 mg/dL; details: atorvastatin 80 mg
Experimental: This is an 18-month, open-label, randomized, multicenter study in 341 patients with elevated LDL-C (≧130 mg/dL whether or not they are receiving lipid-lowering medication) who have had angiography. […] Patients must be Class I or II based on the Canadian Cardiovascular Society classification of angina severity, and must be able to complete 4 minutes of a Bruce protocol treadmill test, or a 20-W/min supine bicycle exercise test.
The study is conducted in patients with LDL-C≧130 mg/dL and TG≦400 mg/dL who have asymptomatic or mildly to moderately symptomatic CAD (with or without antianginal therapy) and in whom a recanalization procedure is recommended. “Usual care” represents a heterogeneous mix of therapies that may include calcium channel blocker use or lipid-lowering therapy (including diet, behavior modification or antihyperlipidemic medication). Patients who have undergone angiography, or are about to undergo angiography, will be considered for this study based on the results of the angiogram and other inclusion criteria. The study will be performed using a common protocol at all study sites. […]
All patients will be randomized to either Group 1 or Group 2 according to a randomization code. […] Usual care will be determined by the investigator or the patient's primary physician (or whoever typically decides the patient's follow-up care) as he or she sees fit. […]

[2] = tested on: hypercholesterolemic patients; details: 2.5 to 80 mg/day, 6 weeks; cited from earlier work
[3] = tested on: cholesterol-fed male New Zealand White rabbits; details: 8 weeks, compared to progression controls; cited from earlier work
subjects and patients = details: over 400 subjects and patients; cited from earlier work

CC(C)c1c(C(=O)Nc2ccccc2)c(-c2ccccc2)c(-c2ccc(F)cc2)n1CC[C@@H](O)C[C@@H](O)CC(=O)O [atorvastatin]
patients who encountered an adverse heart event ([1]; over 18 months, angioplasty group 21%): 13% | LDL cholesterol on treatment, average ([1]; from 140 mg/dL before treatment): 77 mg/dL | HDL-C, apolipoprotein AI (apo AI) or Lp (a) [2]: No significant changes | apolipoprotein B (apo B) [2]: significantly reduced | drug-related serious adverse events [2]: no drug-related serious adverse events | reduction of TG levels [2]: up to 32% | total cholesterol [2]: significantly reduced | percentage of discernible thoracic aortic lesions [3]: reduced | reduction of extracellular matrix and smooth muscle cell area [3]: 63% | reduction of size of iliac-femoral lesions [3]: approximately 68% | most frequently occurring adverse events (subjects and patients): headache, infection (mostly colds), constipation, and back pain
